# Where “and” joins values, the source holds several entries; their conditions need not be identical. Identical values can stand only once.
# Columns and labels:
# Assay type in all cases: cell-based
# C. parapsilosis isolates = assay: CLSI M27-A3 broth microdilution on Candida isolates (Table 2)
# Method: (§1) The tested C. albicans, C. tropicalis, C. parapsilosis, C. glabrata and C. krusei ATCC strains and clinical isolates are listed in Table 2. MICs were determined according to the CLSI M27-A3 [22]. Antifungal agents were dissolved in 100% DMSO and diluted further in RPMI-1640 (with L-glutamine but without bicarbonate) (Sigma, Budapest, Hungary), and buffered to pH 7.0 with 0.165 M morpholinopropanesulfonic acid (MOPS; Sigma, Budapest, Hungary). The final concentration ranges used for AMB and ICAN derivatives were 0.125 to 4 μg/ml and 0.04 to 20 μg/ml, respectively. Yeast cell suspensions were prepared in RPMI 1640 medium and were adjusted to give a final inoculum concentration of 0.5×10^3 to 2.5×10^3 cells/ml. MICs were read visually after 48-h incubation at 35° C. using the partial (50%) inhibition (for ICAN derivatives) (PI) and total inhibition (for AMB and ICAN derivatives) (TI) criteria. MICs were determined at least twice. For amphotericin B isolates with MIC values of ≤2 mg/L were considered wild-types. [Pfaller M A, 2012]
# C. tropicalis isolates = assay: as above
# Method: as §1
# C. krusei isolates = assay: as above
# Method: as §1
# C. albicans isolates = assay: as above
# Method: as §1
# C. glabrata isolates = assay: as above
# Method: as §1
# human cell cultures = assay: MTT bio assay cytotoxicity; details: MTT bio assay technique
# [1] = test system: C. albicans SC5314, C. krusei ATCC 6258 and C. parapsilosis ATCC 22019; assay: CLSI broth microdilution, MIC summarised over the three Candida test strains; details: value or range over the three Candida strains of Table 1, total inhibition
# Method: ICAN has 3 key moieties, namely the amino, naphthalene and isonitrile. To find out which ones of them are essential for the antifungal behavior and to design more efficient derivatives, comparative studies were carried out, where one of the moieties was exchanged or eliminated. All ICAN derivatives were tested against C. albicans SC5314, C. krusei ATCC 6258 and C. parapsilosis ATCC 22019. The antifungal agents were dissolved in 100% DMSO and diluted further in RPMI-1640 (with L-glutamine but without bicarbonate) and buffered to pH 7.0 with 0.165 M morpholinopropanesulfonic acid (MOPS). MICs were read visually after 48-h incubation at 35° C. using the partial (50%) inhibition (for ICAN derivatives) (PI) and total inhibition (for AMB and ICAN derivatives) (TI) criteria. MICs were determined at least twice.
# as §1
structure (smiles),measurement,setting,value
"[C-]#[N+]c1cccc2c(N(C)C)cccc12 [DIMICAN, N,N-dimethyl-1-amino-5-isocyanonaphthalene]",MICPI,C. parapsilosis isolates; isolate 4133,0.08 µg/mL
same,MICTI,C. parapsilosis isolates; isolate 4133,0.08 µg/mL
same,MICPI,C. parapsilosis isolates; isolate 9613,0.15 µg/mL
same,MICTI,C. parapsilosis isolates; isolate 9613,0.15 µg/mL
same,MICPI,C. parapsilosis isolates; isolate 10252,≤0.04 µg/mL
same,MICTI,C. parapsilosis isolates; isolate 10252,0.08 µg/mL
same,MICPI,C. parapsilosis isolates; isolate 18154,0.08 µg/mL
same,MICTI,C. parapsilosis isolates; isolate 18154,0.6 µg/mL
same,MICPI,C. parapsilosis isolates; isolate 27001,≤0.04 µg/mL
same,MICTI,C. parapsilosis isolates; isolate 27001,0.3 µg/mL
same,MICPI,C. parapsilosis isolates; isolate ATCC 22019,0.15 µg/mL
same,MICTI,C. parapsilosis isolates; isolate ATCC 22019,0.6 µg/mL
same,MICPI,C. tropicalis isolates; isolate 579,0.08 µg/mL
same,MICTI,C. tropicalis isolates; isolate 579,0.6 µg/mL
same,MICPI,C. tropicalis isolates; isolate 622,0.08 µg/mL
same,MICTI,C. tropicalis isolates; isolate 622,0.3 µg/mL
same,MICPI,C. tropicalis isolates; isolate 1776,0.08 µg/mL
same,MICTI,C. tropicalis isolates; isolate 1776,0.3 µg/mL
same,MICPI,C. tropicalis isolates; isolate 2467,0.15 µg/mL
same,MICTI,C. tropicalis isolates; isolate 2467,1.25 µg/mL
same,MICPI,C. tropicalis isolates; isolate 3014,0.08 µg/mL
same,MICTI,C. tropicalis isolates; isolate 3014,0.6 µg/mL
same,MICPI,C. tropicalis isolates; isolate 5115,0.08 µg/mL
same,MICTI,C. tropicalis isolates; isolate 5115,1.25 µg/mL
same,MICPI,C. tropicalis isolates; isolate 5806,0.08 µg/mL
same,MICTI,C. tropicalis isolates; isolate 5806,0.15 µg/mL
same,MICPI,C. tropicalis isolates; isolate ATCC 750,0.15 µg/mL
same,MICTI,C. tropicalis isolates; isolate ATCC 750,1.25 µg/mL
same,MICPI,C. krusei isolates; isolate 749,0.08 µg/mL
same,MICTI,C. krusei isolates; isolate 749,0.08 µg/mL
same,MICPI,C. krusei isolates; isolate 1853,0.08 µg/mL
same,MICTI,C. krusei isolates; isolate 1853,0.3 µg/mL
same,MICPI,C. krusei isolates; isolate 4364,≤0.04 µg/mL
same,MICTI,C. krusei isolates; isolate 4364,0.15 µg/mL
same,MICPI,C. krusei isolates; isolate 5029,≤0.04 µg/mL
same,MICTI,C. krusei isolates; isolate 5029,0.08 µg/mL
same,MICPI,C. krusei isolates; isolate 5072,0.08 µg/mL
same,MICTI,C. krusei isolates; isolate 5072,0.3 µg/mL
same,MICPI,C. krusei isolates; isolate 25504,0.08 µg/mL
same,MICTI,C. krusei isolates; isolate 25504,0.3 µg/mL
same,MICPI,C. krusei isolates; isolate 34987,≤0.04 µg/mL
same,MICTI,C. krusei isolates; isolate 34987,0.08 µg/mL
same,MICPI,C. krusei isolates; isolate ATCC 6258,0.15 µg/mL
same,MICTI,C. krusei isolates; isolate ATCC 6258,0.3 µg/mL
same,MICPI,C. albicans isolates; isolate 456,≤0.04 µg/mL
same,MICTI,C. albicans isolates; isolate 456,0.6 µg/mL
same,MICPI,C. albicans isolates; isolate 665,≤0.04 µg/mL
same,MICTI,C. albicans isolates; isolate 665,0.6 µg/mL
same,MICPI,C. albicans isolates; isolate 685,≤0.04 µg/mL
same,MICTI,C. albicans isolates; isolate 685,0.6 µg/mL
same,MICPI,C. albicans isolates; isolate 720,≤0.04 µg/mL
same,MICTI,C. albicans isolates; isolate 720,0.6 µg/mL
same,MICPI,C. albicans isolates; isolate 963,≤0.04 µg/mL
same,MICTI,C. albicans isolates; isolate 963,0.6 µg/mL
same,MICPI,C. albicans isolates; isolate 1544,≤0.04 µg/mL
same,MICTI,C. albicans isolates; isolate 1544,0.6 µg/mL
same,MICPI,C. albicans isolates; isolate 3666,≤0.04 µg/mL
same,MICTI,C. albicans isolates; isolate 3666,0.6 µg/mL
same,MICPI,C. albicans isolates; isolate 8658,≤0.04 µg/mL
same,MICTI,C. albicans isolates; isolate 8658,0.6 µg/mL
same,MICPI,C. albicans isolates; isolate ATCC 10231,≤0.04 µg/mL
same,MICTI,C. albicans isolates; isolate ATCC 10231,0.3 µg/mL
same,MICPI,C. glabrata isolates; isolate 14408,≤0.04 µg/mL
same,MICTI,C. glabrata isolates; isolate 14408,0.08 µg/mL
same,MICPI,C. glabrata isolates; isolate 14559,≤0.04 µg/mL
same,MICTI,C. glabrata isolates; isolate 14559,0.3 µg/mL
same,MICPI,C. glabrata isolates; isolate 22394,≤0.04 µg/mL
same,MICTI,C. glabrata isolates; isolate 22394,0.3 µg/mL
same,MICPI,C. glabrata isolates; isolate 23429,≤0.04 µg/mL
same,MICTI,C. glabrata isolates; isolate 23429,0.3 µg/mL
same,MICPI,C. glabrata isolates; isolate 23481,0.08 µg/mL
same,MICTI,C. glabrata isolates; isolate 23481,1.25 µg/mL
same,MICPI,C. glabrata isolates; isolate 27643,0.08 µg/mL
same,MICTI,C. glabrata isolates; isolate 27643,0.3 µg/mL
same,MICPI,C. glabrata isolates; isolate 28557,≤0.04 µg/mL
same,MICTI,C. glabrata isolates; isolate 28557,0.6 µg/mL
same,MICPI,C. glabrata isolates; isolate ATCC 90030,0.15 µg/mL
same,MICTI,C. glabrata isolates; isolate ATCC 90030,0.3 µg/mL
same,LD50,human cell cultures,13 µg/mL
same,MICTI,[1],0.6 µg/mL and 0.3 to 0.6 µg/mL
